The record followed here is ChEMBL document CHEMBL6083210, “Exploring apoptotic induction of malabaricone A in triple-negative breast cancer cells: an acylphenol phyto-entity isolated from the fruit rind of Myristica malabarica Lam” (RSC Med Chem, 2024).

What all share (format): functional, cell-based
The test system of assay [1] is MDA-MB-231. Briefly: Antiproliferative activity against human MDA-MB-231 cells assessed as reduction in cell viability incubated for 24 hrs by MTT assay. Conditions: MDA-MB-231, 24 h. For orientation: Tetrazolium assays rely on reduction of a dye to a coloured formazan, in cell work by metabolically active cells.
Assay [2] relates to SK-BR-3. In words: Antiproliferative activity against human SK-BR-3 cells assessed as reduction in cell viability incubated for 24 hrs by MTT assay. The note with it: SK-BR-3, 24 h.
Assay [3] concerns MCF-10A. Briefly: Antiproliferative activity against human MCF-10A cells assessed as reduction in cell viability incubated for 24 hrs by MTT assay.

What is called IC50 is the concentration that gives 50% inhibition. On to `O=C(CCCCCCCCc1ccc(O)cc1)c1c(O)cccc1O` [MALABARICONE B], for which the figures for the IC50 in assay [1], in assay [2] and in assay [3] were 19.1 µM, 13.5 µM and 62 µM, respectively.

In the case of `O=C(CCCCCCCCc1ccc(O)c(O)c1)c1c(O)cccc1O` [MALABARICONE C], the IC50 amounted to 19.6 µM in assay [1], 16.4 µM in assay [2] and 97.3 µM in assay [3].
